Laboratory results as given in PubChem BioAssay (NCI).
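Compound exposure: 48 hours, 5 concentrations, 96-well plates. The concentration for 50% growth inhibition is given as GI50. Definition used: TGI = concentration required for complete inhibition of growth.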

What was measured:
Experiment in all cases: growth of human tumour cells (NCI), 48 h
SR leukemia = test system: SR leukemia
NCI-H522 lung = test system: NCI-H522 lung
KM12 colon = test system: KM12 colon
HOP-92 NSCLC = test system: HOP-92 NSCLC
T-47D breast = test system: T-47D breast
UO-31 renal = test system: UO-31 renal
HCC-2998 colon = test system: HCC-2998 colon
COLO 205 colon = test system: COLO 205 colon
A498 renal = test system: A498 renal
HT29 colon = test system: HT29 colon
HS 578T breast = test system: HS 578T breast
HCT-116 colon = test system: HCT-116 colon
CAKI-1 renal = test system: CAKI-1 renal
UACC-257 melanoma = test system: UACC-257 melanoma
UACC-62 melanoma = test system: UACC-62 melanoma
PC-3 prostate = test system: PC-3 prostate
OVCAR-8 ovarian = test system: OVCAR-8 ovarian
MDA-MB-435 = test system: MDA-MB-435
HOP-62 NSCLC = test system: HOP-62 NSCLC
OVCAR-3 ovarian = test system: OVCAR-3 ovarian
NCI-H460 lung = test system: NCI-H460 lung
CCRF-CEM leukemia = test system: CCRF-CEM leukemia
K-562 leukemia = test system: K-562 leukemia
HCT-15 colon = test system: HCT-15 colon
OVCAR-4 ovarian = test system: OVCAR-4 ovarian
A549 NSCLC = test system: A549 NSCLC
RXF 393 renal = test system: RXF 393 renal
SK-MEL-28 melanoma = test system: SK-MEL-28 melanoma
RPMI-8226 leukemia = test system: RPMI-8226 leukemia
U251 CNS = test system: U251 CNS
MDA-MB-231 breast = test system: MDA-MB-231 breast
SNB-75 CNS = test system: SNB-75 CNS
DU-145 prostate = test system: DU-145 prostate
TK-10 renal = test system: TK-10 renal
ACHN renal = test system: ACHN renal
SF-295 CNS = test system: SF-295 CNS
NCI/ADR-RES ovarian = test system: NCI/ADR-RES ovarian
786-0 renal = test system: 786-0 renal
HL-60(TB) leukemia = test system: HL-60(TB) leukemia
SF-539 CNS = test system: SF-539 CNS
SNB-19 CNS = test system: SNB-19 CNS
M14 melanoma = test system: M14 melanoma
MALME-3M melanoma = test system: MALME-3M melanoma
MCF7 breast = test system: MCF7 breast
SF-268 CNS = test system: SF-268 CNS
SK-MEL-5 melanoma = test system: SK-MEL-5 melanoma
NCI-H23 lung = test system: NCI-H23 lung
MOLT-4 leukemia = test system: MOLT-4 leukemia
OVCAR-5 ovarian = test system: OVCAR-5 ovarian
EKVX NSCLC = test system: EKVX NSCLC
SW-620 colon = test system: SW-620 colon
BT-549 breast = test system: BT-549 breast
IGROV1 ovarian = test system: IGROV1 ovarian
SK-OV-3 ovarian = test system: SK-OV-3 ovarian
SN12C renal = test system: SN12C renal

Work on COc1ccc(F)cc1-c1ccnc2[nH]c(C3=CCN(C4CCC(CC(=O)O)CC4)CC3)cc12 (centres undefined) yielded a GI50 (SR leukemia) of 0.0295 µM, a TGI (SR leukemia) of over 100 µM and a GI50 (NCI-H522 lung) of 0.159 µM. It also gave a TGI (NCI-H522 lung) of 0.714 µM, a GI50 (KM12 colon) of 0.0953 µM and a TGI (KM12 colon) of over 100 µM. For the same molecule, the GI50 (HOP-92 NSCLC) was 0.0568 µM, the TGI (HOP-92 NSCLC) was 0.666 µM and the GI50 (T-47D breast) was 0.187 µM. The TGI (T-47D breast) was over 100 µM, the GI50 (UO-31 renal) was 0.205 µM and the TGI (UO-31 renal) was 0.625 µM. It also gave a GI50 (HCC-2998 colon) of 0.299 µM, a TGI (HCC-2998 colon) of over 100 µM and a GI50 (COLO 205 colon) of 0.0747 µM. For the same molecule, the TGI (COLO 205 colon) was 0.561 µM, the GI50 (A498 renal) was 0.21 µM and the TGI (A498 renal) was 0.543 µM. For the same molecule, the GI50 (HT29 colon) was 0.234 µM, the TGI (HT29 colon) was 3.93 µM and the GI50 (HS 578T breast) was 0.177 µM. For the same molecule, the TGI (HS 578T breast) was 0.965 µM, the GI50 (HCT-116 colon) was 0.163 µM and the TGI (HCT-116 colon) was over 100 µM. The GI50 (CAKI-1 renal) was 0.434 µM, the TGI (CAKI-1 renal) was over 100 µM and the GI50 (UACC-257 melanoma) was 0.307 µM. For the same molecule, the TGI (UACC-257 melanoma) was over 100 µM, the GI50 (UACC-62 melanoma) was 0.113 µM and the TGI (UACC-62 melanoma) was 0.371 µM. It also gave a GI50 (PC-3 prostate) of 0.313 µM, a TGI (PC-3 prostate) of over 100 µM and a GI50 (OVCAR-8 ovarian) of 0.288 µM. The TGI (OVCAR-8 ovarian) was over 100 µM, the GI50 (MDA-MB-435) was 0.221 µM and the TGI (MDA-MB-435) was 1.05 µM. For the same molecule, the GI50 (HOP-62 NSCLC) was 0.362 µM, the TGI (HOP-62 NSCLC) was over 100 µM and the GI50 (OVCAR-3 ovarian) was 0.107 µM. It also gave a TGI (OVCAR-3 ovarian) of over 100 µM, a GI50 (NCI-H460 lung) of 0.236 µM and a TGI (NCI-H460 lung) of over 100 µM. For the same molecule, the GI50 (CCRF-CEM leukemia) was 0.13 µM, the TGI (CCRF-CEM leukemia) was over 100 µM and the GI50 (K-562 leukemia) was 0.316 µM. It also gave a TGI (K-562 leukemia) of over 100 µM, a GI50 (HCT-15 colon) of 0.249 µM and a TGI (HCT-15 colon) of over 100 µM. The GI50 (OVCAR-4 ovarian) was 0.282 µM, the TGI (OVCAR-4 ovarian) was 6.44 µM and the GI50 (A549 NSCLC) was 0.424 µM. For the same molecule, the TGI (A549 NSCLC) was over 100 µM, the GI50 (RXF 393 renal) was 0.0413 µM and the TGI (RXF 393 renal) was 0.216 µM. It also gave a GI50 (SK-MEL-28 melanoma) of 0.152 µM, a TGI (SK-MEL-28 melanoma) of 0.989 µM and a GI50 (RPMI-8226 leukemia) of 0.235 µM. It also gave a TGI (RPMI-8226 leukemia) of 0.786 µM, a GI50 (U251 CNS) of 0.137 µM and a TGI (U251 CNS) of over 100 µM. It also gave a GI50 (MDA-MB-231 breast) of 0.205 µM, a GI50 (SNB-75 CNS) of 0.13 µM and a TGI (SNB-75 CNS) of 0.381 µM. For the same molecule, the GI50 (DU-145 prostate) was 0.346 µM, the TGI (DU-145 prostate) was over 100 µM and the GI50 (TK-10 renal) was 0.344 µM. For the same molecule, the TGI (TK-10 renal) was over 100 µM, the GI50 (ACHN renal) was 0.243 µM and the TGI (ACHN renal) was over 100 µM. The GI50 (SF-295 CNS) was 0.286 µM, the TGI (SF-295 CNS) was 15.4 µM and the GI50 (NCI/ADR-RES ovarian) was 2.15 µM. For the same molecule, the TGI (NCI/ADR-RES ovarian) was over 100 µM, the GI50 (786-0 renal) was 0.219 µM and the TGI (786-0 renal) was 37.3 µM. It also gave a GI50 (HL-60(TB) leukemia) of 0.0739 µM, a TGI (HL-60(TB) leukemia) of 1.45 µM and a GI50 (SF-539 CNS) of 0.0546 µM. It also gave a TGI (SF-539 CNS) of 0.335 µM, a GI50 (SNB-19 CNS) of 0.152 µM and a TGI (SNB-19 CNS) of over 100 µM. The GI50 (M14 melanoma) was 0.275 µM, the TGI (M14 melanoma) was 1.93 µM and the GI50 (MALME-3M melanoma) was 0.206 µM. For the same molecule, the TGI (MALME-3M melanoma) was 0.563 µM, the GI50 (MCF7 breast) was 0.0625 µM and the TGI (MCF7 breast) was 26.9 µM. It also gave a GI50 (SF-268 CNS) of 0.144 µM, a TGI (SF-268 CNS) of 17.7 µM and a GI50 (SK-MEL-5 melanoma) of 0.121 µM. The TGI (SK-MEL-5 melanoma) was 0.389 µM, the GI50 (NCI-H23 lung) was 0.185 µM and the TGI (NCI-H23 lung) was 2.53 µM. It also gave a GI50 (MOLT-4 leukemia) of 0.218 µM, a TGI (MOLT-4 leukemia) of over 100 µM and a GI50 (OVCAR-5 ovarian) of 0.268 µM. For the same molecule, the TGI (OVCAR-5 ovarian) was over 100 µM, the GI50 (EKVX NSCLC) was 0.289 µM and the TGI (EKVX NSCLC) was 40.9 µM. The GI50 (SW-620 colon) was 0.123 µM, the TGI (SW-620 colon) was 18.3 µM and the GI50 (BT-549 breast) was 0.156 µM. For the same molecule, the TGI (BT-549 breast) was 0.903 µM, the GI50 (IGROV1 ovarian) was 0.168 µM and the TGI (IGROV1 ovarian) was over 100 µM. The GI50 (SK-OV-3 ovarian) was 1.2 µM, the TGI (SK-OV-3 ovarian) was over 100 µM and the GI50 (SN12C renal) was 0.146 µM. The TGI (SN12C renal) was 35.5 µM.
